The assay has as its system cysteines in HEK293T cell lysates. Briefly: competitive ABPP workflow with DADPS capture reagents. In kind it is biochemical. The text has this:
To obtain an isotopically enriched DADPS capture reagent, the synthesis and application of heavy L-valine (^13C5 ^15N)— containing reagent NBIV-010 was focused on, as the relatively large +6 Da mass difference is ideal for MS1-based quantification. Further motivating the isotopic reagent design, a +6-mass difference is used in isoTOP-ABPP and isoDTB reagents together with the previously reported heavy and light azido-biotin reagents, which was envisioned could facilitate head-to-head comparisons. Using the same synthetic strategy, heavy reagent NBIV-010 was obtained in 58% yield. […] These reagents in a were further validated in a competitive ABPP workflow. Using HEK293T cell lysates, samples were subjected to either vehicle, DMSO, or 500 μM KB02. Upon labeling with IAA and clicking the samples with either heavy or light DADPS probe (NBIV-010 or NBIV-009, respectively; FIG. 4B) or heavy or light biotin azide, the samples were subjected to SP3 cleanup. After enrichment with either streptavidin resin, for DADPS labeled peptides, or NeutrAvidin resin, for biotin azide labeled peptides, the peptides were cleaved or eluted off resin, respectively, and analyzed by LC-MS/MS. […]

As for `COc1ccc2c(c1)CCCN2C(=O)CCl` [KB02], the “cysteines with ratios>2 shared by DADPS and biotin azide datasets (high confidence KB02-labeled sites)” value (500 μM KB02) is 163. The “cysteines found in peptides with Log2 MS1 extracted ion chromatograph area ratios>2 (cysteines modified by KB02; ligandable cysteines)” value (500 μM KB02 vs DMSO, heavy/light DADPS probes NBIV-010/NBIV-009, three biological replicates) was found to be 404.

The values above are taken from patent US20260056204A1, “COMPOSITIONS AND METHODS FOR CHEMOPROTEOMIC REAGENT SYNTHESIS AND APPLICATION” (The Regents of the University of California, priority 2023, published 2026).
